Measured values taken from patent publication US20250326771A1, “PIPERAZINE DERIVATIVES USEFUL IN HIV THERAPY” (VIIV HEALTHCARE COMPANY, priority 2022, published 2025).
Read-outs that look alike come from different tables or passages of the source.

Columns and labels:
cIAP2-BIR3 = cIAP2-BIR3 (Homo sapiens (Human), UniProt Q13489); assay: BIR binding assay (FRET competition), cIAP2 BIR3; conditions: for cIAP2 BIR3 vs BIR2 separation window: fold separation (FS) for cIAP2
cIAP1-BIR2 = cIAP1-BIR2 (Homo sapiens (Human), UniProt Q13490); assay: BIR binding assay (FRET competition), cIAP1 BIR2
Sequence of cIAP1-BIR2 (Q13490 173-257): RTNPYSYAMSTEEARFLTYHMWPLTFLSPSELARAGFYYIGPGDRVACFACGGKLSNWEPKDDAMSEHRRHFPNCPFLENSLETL
In short: (§1)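 His-tagged domains (50 nM cIAP1-BIR3, 325 nM cIAP2-BIR2, 325 nM cIAP1-BIR2, 100 nM XIAP-BIR3) compete with compounds for a 200 nM AlexaFluor647-labelled SMAC/DIABLO peptide in HEPES buffer, pH 7.4, for 60 min. Then 2 nM Eu-W1024 is added for 30 min. The 615/665 nm ratio is fit by four-parameter fit to give IC50.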

XIAP-BIR2 = XIAP-BIR2 (Homo sapiens (Human), UniProt P98170); assay: BIR binding assay (FRET competition), XIAP BIR2
Sequence of XIAP-BIR2 (P98170 124-240): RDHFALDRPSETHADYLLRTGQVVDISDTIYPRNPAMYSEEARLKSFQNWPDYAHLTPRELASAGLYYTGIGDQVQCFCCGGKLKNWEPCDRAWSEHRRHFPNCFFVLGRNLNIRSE
In short: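 Compounds in a 15-point, 3-fold series competed with an AlexaFluor647 SMAC peptide (AVPIAQKSE, 200 nM) for 200 nM His-tagged XIAP-BIR2 over 60 min in pH 7.4 HEPES/CHAPS/DTT buffer. Eu-W1024 (2 nM) was then added for 30 min. IC50 and pIC50 were derived from the 615 nm/665 nm emission ratio by variable-slope fit.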

XIAP-BIR3 = XIAP-BIR3 (Homo sapiens (Human), UniProt P98170); assay: BIR binding assay (FRET competition), XIAP BIR3; conditions: for XIAP BIR3 vs BIR2 separation window: fold separation (FS) for XIAP
Sequence of XIAP-BIR3 (P98170 241-356): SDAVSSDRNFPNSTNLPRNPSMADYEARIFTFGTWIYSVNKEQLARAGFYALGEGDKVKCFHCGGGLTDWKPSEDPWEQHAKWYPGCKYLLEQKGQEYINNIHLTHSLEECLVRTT
In short: as §1

cIAP1-BIR3 = cIAP1-BIR3 (Homo sapiens (Human), UniProt Q13490); assay: BIR binding assay (FRET competition), cIAP1 BIR3; conditions: for cIAP1 BIR3 vs BIR2 separation window: fold separation (FS) for cIAP1
Sequence of cIAP1-BIR3 (Q13490 253-363): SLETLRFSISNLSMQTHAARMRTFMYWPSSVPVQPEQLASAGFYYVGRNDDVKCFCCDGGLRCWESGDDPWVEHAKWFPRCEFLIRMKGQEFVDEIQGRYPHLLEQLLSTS
In short: as §1

cIAP2-BIR2 = cIAP2-BIR2 (Homo sapiens (Human), UniProt Q13489); assay: BIR binding assay (FRET competition), cIAP2 BIR2
Sequence of cIAP2-BIR2 (Q13489 158-242): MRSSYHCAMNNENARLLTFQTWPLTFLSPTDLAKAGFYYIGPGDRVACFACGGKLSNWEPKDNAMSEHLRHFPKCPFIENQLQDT
In short: as §1

[1] = test system: Jurkat HIV-luciferase clones; assay: Jurkat latency reversal assay; format: cell-based; conditions: Homo sapiens, 48 h; Jurkat latency reversal assay potency; read-out: Jurkat pEC50 (converted)
In short: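 Pooled Jurkat clones C16, 115 and N6, each carrying one or two integrated HIV-luciferase proviruses and kept in 500 nM EFV, were exposed to 3-fold, 14-point compound titrations in duplicate (10 μM top, 0.5% DMSO) for 48 h at 37° C. Luciferase luminescence was fitted by four-parameter logistic regression for EC50 and maximal percent activation versus vehicle.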

[2] = FRET competition binding, read-out: XIAP BIR2 (pIC50) (converted)

Sequence of cIAP2-BIR3 (Q13489 238-349): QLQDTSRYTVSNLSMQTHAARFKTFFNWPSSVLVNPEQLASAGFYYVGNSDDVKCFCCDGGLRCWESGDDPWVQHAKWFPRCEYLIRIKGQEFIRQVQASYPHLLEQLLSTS

Structure (SMILES) | IC50 (cIAP2-BIR3) [nM] | cIAP2 BIR3 vs BIR2 separation window (cIAP2-BIR3) | IC50 (cIAP1-BIR2) [nM] | IC50 (XIAP-BIR2; [2]) [µM] | IC50 (XIAP-BIR3) [nM] | XIAP BIR3 vs BIR2 separation window (XIAP-BIR3) | IC50 (cIAP1-BIR3) [nM] | cIAP1 BIR3 vs BIR2 separation window (cIAP1-BIR3) | IC50 (cIAP2-BIR2) [nM] | EC50 [1] [nM] | IC50 (XIAP-BIR2) [µM] | IC50 (XIAP-BIR2; FRET competition, read-out: XIAP BIR2 (pIC50) (converted)) [µM]
C[C@@H]1CN(CC(=O)N2CC(C)(C)c3[nH]c(=O)c(Cc4ccc(F)cc4)cc32)[C@@H](CN2CCO[C@H](C(=O)NCCOCCOCCOCCNC(=O)[C@@H]3CN(C[C@H]4CN[C@H](C)CN4CC(=O)N4CC(C)(C)c5[nH]c(=O)c(Cc6ccc(F)cc6)cc54)CCO3)C2)CN1 [Example 121, (2S,2'S)-N,N′-(((oxybis(ethane-2,1-diyl))bis(oxy))bis(ethane-2,1-diyl))bis(4-(((2R,5R)-1-(2-(6-(4-fluorobenzyl)-3,3-dimethyl-5-oxo-2,3,4,5-tetrahydro-1H-pyrrolo[3,2-b]pyridin-1-yl)-2-oxoethyl)-5-methylpiperazin-2-yl)methyl)morpholine-2-carboxamide)] | 7.94 to 15.8 | +++ (10,000>FS>1,000) | 1000 to 3160 | 10 to 51.3 | 7.94 to 15.8 | ++++ (FS>10,000) | 7.94 to 15.8 | +++ (10,000>FS>1,000) | 1000 to 3160 | 63.1 to 316 |  | 
C[C@@H]1CN(CC(=O)N2CC(C)(C)c3[nH]c(=O)c(Cc4ccc(F)cc4)cc32)[C@@H](CN2CCN(C(=O)Cc3ccccc3CC(=O)N3CCN(C[C@H]4CN[C@H](C)CN4CC(=O)N4CC(C)(C)c5[nH]c(=O)c(Cc6ccc(F)cc6)cc54)[C@H](C)C3)C[C@H]2C)CN1 [Example 7, 1,1′-(2,2′-((3R,3′R,6R,6′R)-(((2R,2′R)-(2,2′-(1,2-phenylene)bis(acetyl))bis(2-methylpiperazine-4,1-diyl))bis(methylene))bis(3-methylpiperazine-6,1-diyl))bis(acetyl))bis(6-(4-fluorobenzyl)-3,3-dimethyl-1,2,3,4-tetrahydro-5H-pyrrolo[3,2-b]pyridin-5-one)] | 15.8 to 31.6 |  | 22.4 to 1000 | 1 to 3.16 | 15.8 to 31.6 |  | 15.8 to 31.6 |  | 22.4 to 1000 | 63.1 to 316 |  | 
C[C@@H]1CN(CC(=O)N2CC(C)(C)c3[nH]c(=O)c(Cc4ccc(F)cc4)cc32)[C@@H](CN2CCN(C(=O)c3cccnc3-c3ncccc3C(=O)N3CCN(C[C@H]4CN[C@H](C)CN4CC(=O)N4CC(C)(C)c5[nH]c(=O)c(Cc6ccc(F)cc6)cc54)[C@H](C)C3)C[C@H]2C)CN1 [Example 17, 1,1′-(2,2′-((3R,3′R,6R,6′R)-(((2R,2′R)-([2,2′-bipyridine]-3,3′-dicarbonyl)bis(2-methylpiperazine-4,1-diyl))bis(methylene))bis(3-methylpiperazine-6,1-diyl))bis(acetyl))bis(6-(4-fluorobenzyl)-3,3-dimethyl-1,2,3,4-tetrahydro-5H-pyrrolo[3,2-b]pyridin-5-one)] | 1.38 to 7.94 | ++ (1,000>FS>100) | 22.4 to 1000 | 10 to 51.3 | 1.38 to 7.94 | ++++ (FS>10,000) | 1.38 to 7.94 | ++ (1,000>FS>100) | 22.4 to 1000 | 316 to 3310 |  | 
C[C@@H]1CN(CC(=O)N2CC(C)(C)c3c2cc(Cc2ccc(F)cc2)c(=O)n3C)[C@@H](CN2CCO[C@H](COCc3ccc(COC[C@@H]4CN(C[C@H]5CN[C@H](C)CN5CC(=O)N5CC(C)(C)c6c5cc(Cc5ccc(F)cc5)c(=O)n6C)CCO4)cc3)C2)CN1 [Example 117, 1,1′-(2,2′-((3R,3′R,6R,6′R)-(((2S,2'S)-(((1,4-phenylenebis(methylene))bis(oxy))bis(methylene))bis(morpholine-2,4-diyl))bis(methylene))bis(3-methylpiperazine-6,1-diyl))bis(acetyl))bis(6-(4-fluorobenzyl)-3,3,4-trimethyl-1,2,3,4-tetrahydro-5H-pyrrolo[3,2-b]pyridin-5-one)] | 15.8 to 31.6 | +++ (10,000>FS>1,000) | 3160 to 10000 | 10 to 51.3 | 31.6 to 501 | ++++ (FS>10,000) | 15.8 to 31.6 | +++ (10,000>FS>1,000) | 3160 to 10000 | 63.1 to 316 |  | 
C[C@@H]1CN(CC(=O)N2CC(C)(C)c3[nH]c(=O)c(Cc4ccc(F)cc4)cc32)[C@@H](CN2CCO[C@H](C(=O)N(C)CCCCCCN(C)C(=O)[C@@H]3CN(C[C@H]4CN[C@H](C)CN4CC(=O)N4CC(C)(C)c5[nH]c(=O)c(Cc6ccc(F)cc6)cc54)CCO3)C2)CN1 [Example 124, (2S,2'S)-N,N′-(hexane-1,6-diyl)bis(4-(((2R,5R)-1-(2-(6-(4-fluorobenzyl)-3,3-dimethyl-5-oxo-2,3,4,5-tetrahydro-1H-pyrrolo[3,2-b]pyridin-1-yl)-2-oxoethyl)-5-methylpiperazin-2-yl)methyl)-N-methylmorpholine-2-carboxamide)] | 7.94 to 15.8 | +++ (10,000>FS>1,000) | 1000 to 3160 | 10 to 51.3 | 7.94 to 15.8 | ++++ (FS>10,000) | 7.94 to 15.8 | +++ (10,000>FS>1,000) | 1000 to 3160 | 12.6 to 63.1 |  | 
C[C@@H]1CN(CC(=O)N2CC(C)(C)c3[nH]c(=O)c(Cc4ccc(F)cc4)cc32)[C@@H](CN2CCO[C@H](C(=O)N(C)CCCN(C)C(=O)[C@@H]3CN(C[C@H]4CN[C@H](C)CN4CC(=O)N4CC(C)(C)c5[nH]c(=O)c(Cc6ccc(F)cc6)cc54)CCO3)C2)CN1 [Example 130, (2S,2'S)-N,N′-(Propane-1,3-diyl)bis(4-(((2R,5R)-1-(2-(6-(4-fluorobenzyl)-3,3-dimethyl-5-oxo-2,3,4,5-tetrahydro-1H-pyrrolo[3,2-b]pyridin-1-yl)-2-oxoethyl)-5-methylpiperazin-2-yl)methyl)-N-methylmorpholine-2-carboxamide)] | 1.38 to 7.94 | +++ (10,000>FS>1,000) | 1000 to 3160 | 10 to 51.3 | 7.94 to 15.8 | ++++ (FS>10,000) | 1.38 to 7.94 | +++ (10,000>FS>1,000) | 1000 to 3160 | 12.6 to 63.1 |  | 
C[C@@H]1CN(CC(=O)N2CC(C)(C)c3[nH]c(=O)c(Cc4ccc(F)cc4)cc32)[C@@H](CN2CCO[C@H](COc3ccc(F)c(OC[C@@H]4CN(C[C@H]5CN[C@H](C)CN5CC(=O)N5CC(C)(C)c6[nH]c(=O)c(Cc7ccc(F)cc7)cc65)CCO4)c3)C2)CN1 [Example 75, 1,1′-(2,2′-((3R,3′R,6R,6′R)-(((2S,2'S)-(((4-fluoro-1,3-phenylene)bis(oxy))bis(methylene))bis(morpholine-2,4-diyl))bis(methylene))bis(3-methylpiperazine-6,1-diyl))bis(acetyl))bis(6-(4-fluorobenzyl)-3,3-dimethyl-1,2,3,4-tetrahydro-5H-pyrrolo[3,2-b]pyridin-5-one)] | 1.38 to 7.94 | +++ (10,000>FS>1,000) | 22.4 to 1000 |  | 1.38 to 7.94 | ++++ (FS>10,000) | 1.38 to 7.94 | +++ (10,000>FS>1,000) | 22.4 to 1000 | 0.49 to 12.6 | 10 to 51.3 | 
C[C@@H]1CN(CC(=O)N2CC(C)(C)c3ncc(Cc4cccnc4)cc32)[C@@H](CN2CCO[C@H](COc3cccc(OC[C@@H]4CN(C[C@H]5CN[C@H](C)CN5CC(=O)N5CC(C)(C)c6ncc(Cc7cccnc7)cc65)CCO4)c3)C2)CN1 [Compound 146] | 1.38 to 7.94 | ++++ (FS>10,000) | 10000 to 51300 |  | 31.6 to 501 | ++++ (FS>10,000) | 1.38 to 7.94 | ++++ (FS>10,000) | 10000 to 51300 | 316 to 3310 | 10 to 51.3 | 
C[C@@H]1CN(CC(=O)N2CC(C)(C)c3ncc(N(C)c4ccc(F)cc4)cc32)[C@@H](CN2CCO[C@H](COc3cccc(OC[C@@H]4CN(C[C@H]5CN[C@H](C)CN5CC(=O)N5CC(C)(C)c6ncc(N(C)c7ccc(F)cc7)cc65)CCO4)c3)C2)CN1 [Compound 144] | 31.6 to 501 | +++ (10,000>FS>1,000) | 10000 to 51300 |  | 31.6 to 501 | +++ (10,000>FS>1,000) | 31.6 to 501 | +++ (10,000>FS>1,000) | 10000 to 51300 | 316 to 3310 |  | 10 to 51.3
